We go through seven compounds from ChEMBL document CHEMBL1201862, “PubChem BioAssay data set” (2004).

For assay [1], the target named is Beta-2 adrenergic receptor (Homo sapiens, UniProt P07550). Put plainly: ADRB2 activation measured by internalization – cell-based, FAP fluorogen, flow cytometry, cherry pick 1, dose response (AID 588763). In kind it is functional. (In general: A flow cytometer gives signals particle by particle.)
For another assay, the target named is Procathepsin L (Homo sapiens, UniProt P07711).
The next assay has as its target Oxytocin receptor (Homo sapiens, UniProt P30559). The experiment in a line: Fluorescence-based cell-based high throughput dose response assay for potentiators of Oxytocin Receptor (OXTR). [Related pubchem assays: 434985 (Confirmation screen (OXTR potentiators in triplicate)), 2481 (Summary (OXTR potentiators)), 2445 (Primary screen (OXTR potentiators in singlicate))]. Type of assay: functional.

The target of the next assay is T1, Aspartyl aminopeptidase (Plasmodium falciparum 3D7, UniProt Q8I2J3).
T1 sequence (Q8I2J3 whole entry): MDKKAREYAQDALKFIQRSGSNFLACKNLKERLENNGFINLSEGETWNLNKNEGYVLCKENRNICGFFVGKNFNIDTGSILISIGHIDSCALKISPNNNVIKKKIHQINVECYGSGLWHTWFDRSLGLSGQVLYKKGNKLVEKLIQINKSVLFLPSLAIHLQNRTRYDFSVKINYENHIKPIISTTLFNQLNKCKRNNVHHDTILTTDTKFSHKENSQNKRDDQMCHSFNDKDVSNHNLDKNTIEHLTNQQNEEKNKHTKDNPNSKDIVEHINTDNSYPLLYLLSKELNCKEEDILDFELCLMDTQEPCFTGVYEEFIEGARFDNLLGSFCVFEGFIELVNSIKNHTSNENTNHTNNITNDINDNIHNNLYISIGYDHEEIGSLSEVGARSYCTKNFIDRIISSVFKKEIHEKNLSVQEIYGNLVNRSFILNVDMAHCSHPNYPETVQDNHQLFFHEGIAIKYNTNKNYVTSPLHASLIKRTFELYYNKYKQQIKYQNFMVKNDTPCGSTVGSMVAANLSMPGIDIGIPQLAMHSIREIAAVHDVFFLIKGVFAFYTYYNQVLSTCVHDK

In a further assay the target is Large T antigen (Simian virus 40, UniProt P03070). Type of assay: functional, Betapolyomavirus macacae.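 Also: Confirmatory-stage PubChem screen for compounds that inhibit SV40 T antigen.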
In assay [2] the target is Latent membrane protein 1 (Human herpesvirus 4 (strain B95-8), UniProt P03230). Put plainly: LMP1 TES1 pathway selectivity over dsRED control – imaging, HEK293T, dual-color eGFP/dsRED, cherry-picks, selectivity assay for LMP1 NF-kB inhibitor project, dose response (AID 588398). In kind it is functional, cell-based.
Assay [3] has as its target CAAX prenyl protease 2 (Homo sapiens, UniProt Q9Y256). The experiment in a line: inhibition of Ras-converting CAAX endoprotease – biochemical, plate reader, dry powder samples, dose response (AID 588848).
Assay [4] addresses CAAX prenyl protease 2 (Saccharomyces cerevisiae S288c, UniProt Q03530). Type of assay: biochemical.
A short description of assay [5]: Luminescence Cell-Based Dose Confirmation HTS to Identify Inhibitors of Platelet Dense Granule Release. [Related pubchem assays: 1663 (Primary HTS), 1678 (Summary of Project)]. In kind it is functional.
A short description of assay [6]: toxicity toward cultured mammalian cells – cell-based, plate reader, cherry-pick samples, cytotoxicity control, dose response (AID 504397). In kind it is functional.
Assay [7] has as its target Luciferin 4-monooxygenase (Photinus pyralis, UniProt P08659). The experiment in a line: inhibition of purified Photinus pyralis luciferase – biochemical, luminescence, dose response (AID 1891).
Assay [8] concerns the target T2, Caspase-3 (Homo sapiens, UniProt P42574).
T2 sequence (P42574 whole entry): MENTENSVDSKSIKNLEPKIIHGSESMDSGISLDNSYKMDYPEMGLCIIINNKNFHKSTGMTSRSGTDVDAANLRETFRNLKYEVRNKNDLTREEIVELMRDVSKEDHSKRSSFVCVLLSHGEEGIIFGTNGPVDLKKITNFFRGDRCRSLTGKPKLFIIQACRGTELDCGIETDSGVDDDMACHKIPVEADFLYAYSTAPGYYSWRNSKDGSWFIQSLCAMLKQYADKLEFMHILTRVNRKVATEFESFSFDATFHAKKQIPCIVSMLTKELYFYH
Put plainly: SAR Analysis of small molecule inhibitors of Sentrin-specific proteases (SENPs) using a Caspase-3 Selectivity assay. [Related pubchem assays (depositor defined):AID2540, AID2599, AID434973, AID489001]. In kind it is functional.

The target in assay [9] is T2, Caspase-3. Put plainly: inhibition of recombinant caspase-3 activity – biochemical, luminescence, set 2, selectivity assay for SENP protease inhibitor project, SAR follow-up (AID 588599). Type of assay: functional.
The target in assay [10] is T3, Sentrin-specific protease 8 (Homo sapiens, UniProt Q96LD8).
T3 sequence (Q96LD8 whole entry): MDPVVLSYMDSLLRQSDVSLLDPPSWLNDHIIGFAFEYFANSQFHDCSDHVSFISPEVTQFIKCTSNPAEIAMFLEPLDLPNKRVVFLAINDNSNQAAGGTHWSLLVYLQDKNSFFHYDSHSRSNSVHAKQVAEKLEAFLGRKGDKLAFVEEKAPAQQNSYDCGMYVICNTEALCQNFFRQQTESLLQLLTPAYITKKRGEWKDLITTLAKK
The experiment in a line: inhibition of sentrin protease 8 – biochemical, luminescence, set 2, SAR follow-up (AID 588601). In kind it is functional.

In assay [11] the target is T4, Sentrin-specific protease 6 (Homo sapiens, UniProt Q9GZR1).
T4 sequence (Q9GZR1 whole entry): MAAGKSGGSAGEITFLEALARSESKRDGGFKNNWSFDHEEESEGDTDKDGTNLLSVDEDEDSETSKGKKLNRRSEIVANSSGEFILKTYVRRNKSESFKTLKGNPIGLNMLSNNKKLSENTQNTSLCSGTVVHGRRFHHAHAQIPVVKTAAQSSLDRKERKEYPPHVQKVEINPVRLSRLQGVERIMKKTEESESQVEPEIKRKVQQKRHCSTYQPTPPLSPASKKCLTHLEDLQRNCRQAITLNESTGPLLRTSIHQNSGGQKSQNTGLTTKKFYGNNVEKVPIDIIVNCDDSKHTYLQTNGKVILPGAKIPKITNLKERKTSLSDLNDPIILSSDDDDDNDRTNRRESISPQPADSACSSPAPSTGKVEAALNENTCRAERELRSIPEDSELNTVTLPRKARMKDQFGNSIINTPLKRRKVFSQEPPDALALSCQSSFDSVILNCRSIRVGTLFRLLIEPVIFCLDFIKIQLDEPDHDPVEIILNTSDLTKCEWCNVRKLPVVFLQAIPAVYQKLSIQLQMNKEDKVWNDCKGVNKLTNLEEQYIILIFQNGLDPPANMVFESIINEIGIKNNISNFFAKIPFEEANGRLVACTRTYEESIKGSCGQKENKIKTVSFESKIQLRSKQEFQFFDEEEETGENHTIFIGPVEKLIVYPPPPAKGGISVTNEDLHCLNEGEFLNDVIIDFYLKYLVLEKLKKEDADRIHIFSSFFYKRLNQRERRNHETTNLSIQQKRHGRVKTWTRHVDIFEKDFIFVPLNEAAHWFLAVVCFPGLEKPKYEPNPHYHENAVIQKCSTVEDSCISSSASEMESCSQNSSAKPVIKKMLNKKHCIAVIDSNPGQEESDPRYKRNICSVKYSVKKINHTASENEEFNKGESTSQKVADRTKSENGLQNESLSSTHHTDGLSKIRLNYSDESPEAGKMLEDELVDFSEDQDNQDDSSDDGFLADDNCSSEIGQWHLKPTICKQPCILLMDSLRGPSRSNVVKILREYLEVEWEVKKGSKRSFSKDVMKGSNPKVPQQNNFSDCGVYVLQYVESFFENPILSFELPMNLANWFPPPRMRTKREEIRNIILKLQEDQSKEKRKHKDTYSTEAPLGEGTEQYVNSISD
Put plainly: inhibition of human SENP6 catalytic domain – biochemical, luminescence, set 2, SAR follow-up (AID 588598). Type of assay: functional.

Assay [12] concerns the target T5, Sentrin-specific protease 7 (Homo sapiens, UniProt Q9BQF6).
T5 sequence (Q9BQF6 whole entry): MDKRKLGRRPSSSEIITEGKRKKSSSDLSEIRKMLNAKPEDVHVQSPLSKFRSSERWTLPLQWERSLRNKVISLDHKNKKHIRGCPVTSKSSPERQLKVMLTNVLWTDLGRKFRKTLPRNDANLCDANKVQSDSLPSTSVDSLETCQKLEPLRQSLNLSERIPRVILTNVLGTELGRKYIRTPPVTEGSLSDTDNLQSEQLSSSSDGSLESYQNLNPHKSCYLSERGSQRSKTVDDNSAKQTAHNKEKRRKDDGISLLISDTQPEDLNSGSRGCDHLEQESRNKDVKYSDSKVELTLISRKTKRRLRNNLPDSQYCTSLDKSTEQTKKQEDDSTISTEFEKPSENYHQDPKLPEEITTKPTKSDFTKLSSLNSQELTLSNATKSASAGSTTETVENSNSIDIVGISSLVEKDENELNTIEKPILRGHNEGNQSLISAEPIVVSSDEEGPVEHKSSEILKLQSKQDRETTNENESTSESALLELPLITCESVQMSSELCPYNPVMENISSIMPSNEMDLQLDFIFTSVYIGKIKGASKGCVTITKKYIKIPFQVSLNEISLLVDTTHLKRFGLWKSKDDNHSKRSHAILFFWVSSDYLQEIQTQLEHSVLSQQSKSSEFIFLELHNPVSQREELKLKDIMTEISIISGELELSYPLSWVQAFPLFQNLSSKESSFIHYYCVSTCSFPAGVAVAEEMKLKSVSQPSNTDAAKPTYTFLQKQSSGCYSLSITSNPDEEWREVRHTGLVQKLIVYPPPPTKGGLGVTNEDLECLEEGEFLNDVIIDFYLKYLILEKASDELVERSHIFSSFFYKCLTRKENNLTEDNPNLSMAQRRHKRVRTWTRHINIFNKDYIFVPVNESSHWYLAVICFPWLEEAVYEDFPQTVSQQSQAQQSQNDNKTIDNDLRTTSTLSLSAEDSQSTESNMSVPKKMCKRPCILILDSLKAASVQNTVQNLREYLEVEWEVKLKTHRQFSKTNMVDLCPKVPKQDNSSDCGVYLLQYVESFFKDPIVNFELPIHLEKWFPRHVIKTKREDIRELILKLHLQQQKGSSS
Put plainly: inhibition of human SENP7 cleavage activity – biochemical, luminescence, SAR follow-up (AID 504497). Type of assay: functional.

Assay [13] addresses T5, Sentrin-specific protease 7. Put plainly: inhibition of human SENP7 cleavage activity – biochemical, luminescence, set 2, SAR follow-up (AID 588600). In kind it is functional.
Assay [14] addresses T3, Sentrin-specific protease 8. The experiment in a line: inhibition of human SENP8 cleavage activity – biochemical, luminescence, SAR follow-up (AID 504501). In kind it is functional.
Assay [15] concerns the target T4, Sentrin-specific protease 6. The experiment in a line: SAR Analysis of small molecule inhibitors of Sentrin-specific protease 6 (SENP6) using a Luminescent assay. [Related pubchem assays (depositor defined):AID2582, AID2599]. In kind it is functional.
Assay [16] addresses T6, Phospholipase D1 (Homo sapiens, UniProt Q13393). Put plainly: PLD1 purified enzyme concentration response. [Related pubchem assays (depositor defined):AID588854]. Type of assay: functional.
The target in assay [17] is T7, Phospholipase D2 (Homo sapiens, UniProt O14939). Put plainly: PLD2 purified enzyme concentration response. [Related pubchem assays (depositor defined):AID588854]. Type of assay: functional.
Assay [18] addresses T6, Phospholipase D1. The experiment in a line: cellular phospholipase D1 inhibition IC50 – cell-based, dose response (AID 602151).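 Also: cellular PLD1 assay in Calu-1 cells stimulated with PMA.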 In kind it is functional.
Assay [19] has as its target T7, Phospholipase D2. Put plainly: cellular phospholipase D2 inhibition IC50 – cell-based, dose response (AID 602147).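 Also: cellular assay in HEK293 cells overexpressing GFP-tagged PLD2.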 In kind it is functional.
In another assay the target is Hexokinase-1 (Homo sapiens, UniProt P19367). The experiment in a line: SAR analysis of small molecule inhibitors of hexokinase domain containing I (HKDC1) in the hexokinase 1 selectivity assay. [Related pubchem assays (depositor defined):AID493160, AID493190]. Type of assay: functional.
Another assay addresses Hexokinase HKDC1 (Homo sapiens, UniProt Q2TB90). The experiment in a line: SAR analysis of small molecule inhibitors of hexokinase domain containing I (HKDC1). [Related pubchem assays (depositor defined):AID493160, AID493190]. In kind it is functional.

Molecules are shown by their SMILES. Activity calls are given as the source filed them. Where only a bound is given, the exact number is not on record here.

T6 sequence (Q13393 whole entry): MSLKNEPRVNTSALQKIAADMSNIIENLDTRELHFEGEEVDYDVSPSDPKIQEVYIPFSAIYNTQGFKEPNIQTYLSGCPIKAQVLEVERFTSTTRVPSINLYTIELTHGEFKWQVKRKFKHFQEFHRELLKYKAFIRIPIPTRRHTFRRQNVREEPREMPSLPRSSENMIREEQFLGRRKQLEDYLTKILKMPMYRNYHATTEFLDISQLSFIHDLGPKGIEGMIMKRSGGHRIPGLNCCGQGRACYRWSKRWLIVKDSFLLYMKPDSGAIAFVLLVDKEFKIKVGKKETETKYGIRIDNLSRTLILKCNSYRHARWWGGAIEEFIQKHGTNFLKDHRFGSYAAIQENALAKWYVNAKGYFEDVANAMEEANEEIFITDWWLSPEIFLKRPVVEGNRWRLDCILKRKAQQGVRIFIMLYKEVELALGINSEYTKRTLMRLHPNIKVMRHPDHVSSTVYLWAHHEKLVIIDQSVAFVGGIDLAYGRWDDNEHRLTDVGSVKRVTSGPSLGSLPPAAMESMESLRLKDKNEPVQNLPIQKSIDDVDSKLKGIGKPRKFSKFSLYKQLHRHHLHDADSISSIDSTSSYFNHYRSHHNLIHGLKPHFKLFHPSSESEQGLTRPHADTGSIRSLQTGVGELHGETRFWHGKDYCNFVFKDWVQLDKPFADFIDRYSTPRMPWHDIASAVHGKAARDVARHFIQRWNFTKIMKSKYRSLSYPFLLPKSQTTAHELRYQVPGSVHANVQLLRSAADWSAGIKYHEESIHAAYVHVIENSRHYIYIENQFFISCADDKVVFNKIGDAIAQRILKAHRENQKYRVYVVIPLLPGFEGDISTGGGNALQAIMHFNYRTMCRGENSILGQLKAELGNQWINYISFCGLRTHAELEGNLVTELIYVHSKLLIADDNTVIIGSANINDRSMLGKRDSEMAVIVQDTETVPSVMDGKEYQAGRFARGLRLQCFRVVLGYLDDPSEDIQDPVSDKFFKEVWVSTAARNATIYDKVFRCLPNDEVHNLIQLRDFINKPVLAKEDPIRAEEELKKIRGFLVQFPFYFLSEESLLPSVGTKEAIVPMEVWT
T7 sequence (O14939 whole entry): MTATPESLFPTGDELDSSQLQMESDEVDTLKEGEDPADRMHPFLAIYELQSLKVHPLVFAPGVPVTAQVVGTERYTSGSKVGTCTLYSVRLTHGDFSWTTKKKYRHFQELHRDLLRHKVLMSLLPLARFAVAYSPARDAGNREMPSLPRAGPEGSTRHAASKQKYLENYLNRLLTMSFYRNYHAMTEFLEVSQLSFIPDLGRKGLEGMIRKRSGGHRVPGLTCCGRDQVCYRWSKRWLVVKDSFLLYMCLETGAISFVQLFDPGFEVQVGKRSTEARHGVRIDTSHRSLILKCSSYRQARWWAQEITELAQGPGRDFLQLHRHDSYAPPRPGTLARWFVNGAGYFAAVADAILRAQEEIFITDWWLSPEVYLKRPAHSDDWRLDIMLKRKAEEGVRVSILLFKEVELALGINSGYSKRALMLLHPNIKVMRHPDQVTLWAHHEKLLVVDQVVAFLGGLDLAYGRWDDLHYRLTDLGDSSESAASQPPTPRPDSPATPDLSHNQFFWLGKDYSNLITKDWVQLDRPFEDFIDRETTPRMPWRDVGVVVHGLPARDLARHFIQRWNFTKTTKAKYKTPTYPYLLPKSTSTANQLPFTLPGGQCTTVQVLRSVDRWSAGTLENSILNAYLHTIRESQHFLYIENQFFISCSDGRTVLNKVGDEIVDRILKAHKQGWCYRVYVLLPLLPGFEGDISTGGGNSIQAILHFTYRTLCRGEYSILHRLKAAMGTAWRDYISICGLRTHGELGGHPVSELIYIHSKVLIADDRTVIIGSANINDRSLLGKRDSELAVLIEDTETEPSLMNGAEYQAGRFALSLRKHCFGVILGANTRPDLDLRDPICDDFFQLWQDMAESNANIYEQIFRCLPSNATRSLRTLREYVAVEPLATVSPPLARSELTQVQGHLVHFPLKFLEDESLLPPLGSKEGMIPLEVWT
Luciferin 4-monooxygenase, sequence (P08659 whole entry): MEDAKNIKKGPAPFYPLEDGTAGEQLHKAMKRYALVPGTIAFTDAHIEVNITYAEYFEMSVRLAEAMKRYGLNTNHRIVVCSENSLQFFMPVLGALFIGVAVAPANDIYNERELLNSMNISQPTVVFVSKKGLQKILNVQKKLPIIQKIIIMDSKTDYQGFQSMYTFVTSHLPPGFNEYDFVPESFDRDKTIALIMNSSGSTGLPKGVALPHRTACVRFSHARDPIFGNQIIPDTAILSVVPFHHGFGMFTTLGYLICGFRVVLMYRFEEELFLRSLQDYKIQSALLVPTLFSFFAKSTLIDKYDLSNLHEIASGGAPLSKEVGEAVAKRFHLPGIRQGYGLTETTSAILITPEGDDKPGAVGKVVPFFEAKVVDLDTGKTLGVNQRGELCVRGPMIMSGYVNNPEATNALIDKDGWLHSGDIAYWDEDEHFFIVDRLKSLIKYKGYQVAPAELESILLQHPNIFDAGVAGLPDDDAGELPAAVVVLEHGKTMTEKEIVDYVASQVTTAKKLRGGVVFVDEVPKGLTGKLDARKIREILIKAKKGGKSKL
Hexokinase HKDC1, sequence (Q2TB90 whole entry, the tested form may be a part): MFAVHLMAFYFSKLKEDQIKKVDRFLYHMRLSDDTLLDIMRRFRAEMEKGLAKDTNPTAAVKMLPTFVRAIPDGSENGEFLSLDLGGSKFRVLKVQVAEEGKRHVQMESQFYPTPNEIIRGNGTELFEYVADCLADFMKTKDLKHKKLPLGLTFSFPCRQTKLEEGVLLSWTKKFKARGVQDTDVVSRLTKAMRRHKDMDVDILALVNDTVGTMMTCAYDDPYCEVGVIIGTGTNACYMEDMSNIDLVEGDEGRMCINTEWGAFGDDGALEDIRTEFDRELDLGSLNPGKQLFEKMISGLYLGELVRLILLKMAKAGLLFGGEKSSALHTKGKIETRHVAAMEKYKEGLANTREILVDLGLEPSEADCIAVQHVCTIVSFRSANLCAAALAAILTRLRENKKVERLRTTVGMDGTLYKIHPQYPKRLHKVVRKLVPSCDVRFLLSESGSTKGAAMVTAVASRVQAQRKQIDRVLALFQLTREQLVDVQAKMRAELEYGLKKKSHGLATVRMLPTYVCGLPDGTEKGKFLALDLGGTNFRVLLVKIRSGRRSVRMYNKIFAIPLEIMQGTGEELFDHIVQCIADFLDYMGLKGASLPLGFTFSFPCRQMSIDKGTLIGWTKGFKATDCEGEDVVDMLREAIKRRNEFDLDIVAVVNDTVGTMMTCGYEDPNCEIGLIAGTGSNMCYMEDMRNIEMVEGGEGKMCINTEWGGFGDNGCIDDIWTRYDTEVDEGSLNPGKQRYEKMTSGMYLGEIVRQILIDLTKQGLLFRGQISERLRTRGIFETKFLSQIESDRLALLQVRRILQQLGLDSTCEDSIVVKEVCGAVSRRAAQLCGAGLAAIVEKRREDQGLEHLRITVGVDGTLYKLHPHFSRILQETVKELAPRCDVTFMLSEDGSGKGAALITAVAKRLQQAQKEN
Beta-2 adrenergic receptor, sequence (P07550 whole entry): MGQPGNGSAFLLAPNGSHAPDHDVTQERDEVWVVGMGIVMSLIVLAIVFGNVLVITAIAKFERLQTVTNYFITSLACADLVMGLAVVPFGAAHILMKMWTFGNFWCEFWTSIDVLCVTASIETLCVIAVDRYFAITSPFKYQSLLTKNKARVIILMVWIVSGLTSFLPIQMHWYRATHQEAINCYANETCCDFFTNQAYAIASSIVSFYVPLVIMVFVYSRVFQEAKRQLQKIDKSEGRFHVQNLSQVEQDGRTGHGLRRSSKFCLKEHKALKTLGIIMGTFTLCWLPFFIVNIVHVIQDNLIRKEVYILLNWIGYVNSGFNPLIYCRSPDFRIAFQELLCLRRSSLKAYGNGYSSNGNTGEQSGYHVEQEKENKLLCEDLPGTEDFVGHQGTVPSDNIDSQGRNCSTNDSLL
Latent membrane protein 1, sequence (P03230 whole entry): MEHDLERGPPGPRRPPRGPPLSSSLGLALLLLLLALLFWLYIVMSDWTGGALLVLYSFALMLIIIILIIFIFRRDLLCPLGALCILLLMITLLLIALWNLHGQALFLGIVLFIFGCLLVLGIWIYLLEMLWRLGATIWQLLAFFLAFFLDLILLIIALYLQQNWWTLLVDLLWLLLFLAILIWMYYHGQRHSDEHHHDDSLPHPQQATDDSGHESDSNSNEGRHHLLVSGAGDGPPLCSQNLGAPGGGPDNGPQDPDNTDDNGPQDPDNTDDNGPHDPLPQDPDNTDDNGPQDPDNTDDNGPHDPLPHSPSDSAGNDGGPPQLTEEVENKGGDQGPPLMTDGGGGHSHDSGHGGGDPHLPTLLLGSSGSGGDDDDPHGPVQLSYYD
CAAX prenyl protease 2 (Homo sapiens, UniProt Q9Y256), sequence (Q9Y256 whole entry): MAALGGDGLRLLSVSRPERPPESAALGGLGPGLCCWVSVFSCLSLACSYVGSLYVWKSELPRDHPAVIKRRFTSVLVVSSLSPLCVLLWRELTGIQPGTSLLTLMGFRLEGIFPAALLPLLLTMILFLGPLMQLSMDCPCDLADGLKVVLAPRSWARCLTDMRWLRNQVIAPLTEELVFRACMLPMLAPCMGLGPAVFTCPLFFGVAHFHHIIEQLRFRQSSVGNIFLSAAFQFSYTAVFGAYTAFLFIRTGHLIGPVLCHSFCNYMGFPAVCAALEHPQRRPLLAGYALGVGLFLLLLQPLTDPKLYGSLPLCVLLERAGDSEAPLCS
Oxytocin receptor, sequence (P30559 whole entry): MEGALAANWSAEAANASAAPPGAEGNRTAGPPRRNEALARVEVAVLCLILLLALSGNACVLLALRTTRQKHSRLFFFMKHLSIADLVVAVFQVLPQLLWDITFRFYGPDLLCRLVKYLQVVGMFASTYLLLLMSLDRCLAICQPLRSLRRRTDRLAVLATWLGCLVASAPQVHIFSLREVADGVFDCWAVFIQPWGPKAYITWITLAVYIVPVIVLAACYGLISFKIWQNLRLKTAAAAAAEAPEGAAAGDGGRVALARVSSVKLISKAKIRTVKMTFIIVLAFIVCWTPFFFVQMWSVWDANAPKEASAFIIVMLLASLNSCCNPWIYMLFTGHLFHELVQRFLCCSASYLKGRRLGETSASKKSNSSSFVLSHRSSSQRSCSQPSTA

`O=C(NCCCn1ccnc1)C1CCCN(S(=O)(=O)c2cc(Cl)ccc2Cl)C1` (stereo not given): the half-maximal effective concentration (EC50) in [1] was 0.999 µM (active).
`O=c1c(O)c(-c2ccc(O)c(O)c2)oc2cc(O)cc(O)c12` [QUERCETIN DIHYDRATE]: the IC50 is > 59.6 µM (not active) on Procathepsin L, 0.385 µM (active) at Aspartyl aminopeptidase and 16.1 µM (active) at Large T antigen. In addition, the EC50 at Oxytocin receptor is > 29.9 µM (not active). The concentration at half-maximal activity (AC50) in assay [2] is 233 µM (active).
For the compound `O=C(COC(=O)/C=C/c1cn(-c2ccccc2)nc1-c1ccc2c(c1)OCCO2)NC1CCS(=O)(=O)C1` (stereo not given), the figures for the AC50 (on CAAX prenyl protease 2 [3]; on CAAX prenyl protease 2 [4]; in assay [6]) were 17.4 µM (active), 0.542 µM (active) and 89.2 µM (active), respectively. Besides, the EC50 in assay [5] and in assay [7] was > 112 µM (not active) throughout.
As to `Oc1ccccc1-c1nc(/C=C/c2ccc(Cl)cc2)no1`, the IC50 was 3.7 µM (active) at Caspase-3 [8]; 1.57 µM (active) at Caspase-3 [9]; 1.44 µM (active) in [10]; 1.5 µM (active) in assay [11]; 1.4 µM (active) in assay [12]; 2.08 µM (active) in assay [13]. The IC50 in [14] and in [15] was > 99 µM (inactive) in each case.
Turning to `O=C(NCCN1CCC2(CC1)C(=O)NCN2c1cccc(F)c1)c1cnc2ccccc2c1`, the IC50 at Phospholipase D1 [16] is 2.8 µM (active); on Phospholipase D2 [17], 0.13 µM (active).
With `CN1CN(c2ccccc2)C2(CCN(CCNC(=O)c3ccc4ccccc4c3)CC2)C1=O`, the results for the IC50 on Phospholipase D1 [18] and at Phospholipase D2 [19] were 2.8 µM (active) and 20 µM (active), respectively.
As for `COc1ccc(/C=C/c2nc3ccccc3c(=O)n2Cc2ccccc2)cc1`, the IC50 on Hexokinase-1 and on Hexokinase HKDC1 was > 80 µM (inactive) throughout.

What is called EC50 is the concentration that produces a half-maximal response. Usually IC50 stands for the concentration at which inhibition is half-maximal. For orientation: AC50 means the midpoint of the concentration-response curve, whichever way the signal moves.
